In data set [1] the test system is MCF-7 breast cancer cells. The experiment in a line: Cytotoxicity against MCF-7 cells. As to conditions: read-out: IC50, cytotoxicity against MCF-7 cells.
The test system of data set [2] is HT-29 colon cancer cells. The experiment in a line: Cytotoxicity against HT-29 cells. The note with it: read-out: IC50, cytotoxicity against HT-29 cells.
The nature of data set [3]: Structural stability in DMSO-d6. Type of data set: physicochemical.

By IC50 is commonly meant the point on the concentration scale where inhibition reaches its midpoint. As for `C=C[C@]1(C)CC[C@H]2C(=C1C#N)c1c([nH]c3ccccc13)C2(C)C` (relative stereo) [Compound 2, deschloro 12-epi-fischerindole I nitrile], the IC50 is > 40 µM in data set [1] and 23 µM in data set [2].

With `C=C[C@]1(C)[C@H](Cl)Cc2cc(C)c3[nH]c4ccccc4c3c2[C@@H]1C#N` (relative stereo) [Compound 3, 12-epi-fischerindole W nitrile], in data set [3], the “structural stability in DMSO-d6” value is “structurally unstable”.

For the compound `C=C[C@]1(C)CCc2cc(C)c3[nH]c4ccccc4c3c2[C@@H]1C#N` (relative stereo) [Compound 4, deschloro 12-epi-fischerindole W nitrile], the “structural stability in DMSO-d6” value in data set [3] was “structurally unstable”.

The values are drawn from publication PMC3315833 (Tetrahedron, 2012).
